Experimental findings from US20240358984A1, “Ultrasound delivery” (ACT Therapeutics Ltd, priority 2021, published 2024) are described below.

The data set has as its system subcutaneous prostate cancer model (PC3). Put plainly: Tumour specific uptake of Evans Blue after ACT. The following applies: Enhancement 0.5 MHz, MI 0 to 0.4, 30 min after treatment. The data set is classed as in vivo, mice. The procedure: To investigate the effect of MI variance of the US Enhancement field, tumour specific uptake of Evans Blue (EB, fluorescent dye) has been investigated in a subcutaneous prostate cancer model (PC3) in mice. Five groups with Enhancement insonation MIs of 0, 0.1, 0.2, 0.3 and 0.4 were investigated (N=3 animals per group). […] 30 min after treatment, the tumors were excised and the amount of EB was measured by spectrophotometry at 620 nm.

The structures appear in SMILES notation.

For `Cc1cc(-c2ccc(/N=N/c3ccc4c(S(=O)(=O)O)cc(S(=O)(=O)O)c(N)c4c3O)c(C)c2)ccc1/N=N/c1ccc2c(S(=O)(=O)O)cc(S(=O)(=O)O)c(N)c2c1O` [Evans Blue], the “tumour tissue uptake as function of Enhancement MI” value is “increases from no US (MI=0) to MI=0.1 and further with MI=0.2, but then drops again with MI=0.3 and further with M=0.4”.
